The target in test [1] is T1, Histone-lysine N-methyltransferase NSD2 (Homo sapiens, UniProt O96028).
T1 sequence (O96028 whole entry): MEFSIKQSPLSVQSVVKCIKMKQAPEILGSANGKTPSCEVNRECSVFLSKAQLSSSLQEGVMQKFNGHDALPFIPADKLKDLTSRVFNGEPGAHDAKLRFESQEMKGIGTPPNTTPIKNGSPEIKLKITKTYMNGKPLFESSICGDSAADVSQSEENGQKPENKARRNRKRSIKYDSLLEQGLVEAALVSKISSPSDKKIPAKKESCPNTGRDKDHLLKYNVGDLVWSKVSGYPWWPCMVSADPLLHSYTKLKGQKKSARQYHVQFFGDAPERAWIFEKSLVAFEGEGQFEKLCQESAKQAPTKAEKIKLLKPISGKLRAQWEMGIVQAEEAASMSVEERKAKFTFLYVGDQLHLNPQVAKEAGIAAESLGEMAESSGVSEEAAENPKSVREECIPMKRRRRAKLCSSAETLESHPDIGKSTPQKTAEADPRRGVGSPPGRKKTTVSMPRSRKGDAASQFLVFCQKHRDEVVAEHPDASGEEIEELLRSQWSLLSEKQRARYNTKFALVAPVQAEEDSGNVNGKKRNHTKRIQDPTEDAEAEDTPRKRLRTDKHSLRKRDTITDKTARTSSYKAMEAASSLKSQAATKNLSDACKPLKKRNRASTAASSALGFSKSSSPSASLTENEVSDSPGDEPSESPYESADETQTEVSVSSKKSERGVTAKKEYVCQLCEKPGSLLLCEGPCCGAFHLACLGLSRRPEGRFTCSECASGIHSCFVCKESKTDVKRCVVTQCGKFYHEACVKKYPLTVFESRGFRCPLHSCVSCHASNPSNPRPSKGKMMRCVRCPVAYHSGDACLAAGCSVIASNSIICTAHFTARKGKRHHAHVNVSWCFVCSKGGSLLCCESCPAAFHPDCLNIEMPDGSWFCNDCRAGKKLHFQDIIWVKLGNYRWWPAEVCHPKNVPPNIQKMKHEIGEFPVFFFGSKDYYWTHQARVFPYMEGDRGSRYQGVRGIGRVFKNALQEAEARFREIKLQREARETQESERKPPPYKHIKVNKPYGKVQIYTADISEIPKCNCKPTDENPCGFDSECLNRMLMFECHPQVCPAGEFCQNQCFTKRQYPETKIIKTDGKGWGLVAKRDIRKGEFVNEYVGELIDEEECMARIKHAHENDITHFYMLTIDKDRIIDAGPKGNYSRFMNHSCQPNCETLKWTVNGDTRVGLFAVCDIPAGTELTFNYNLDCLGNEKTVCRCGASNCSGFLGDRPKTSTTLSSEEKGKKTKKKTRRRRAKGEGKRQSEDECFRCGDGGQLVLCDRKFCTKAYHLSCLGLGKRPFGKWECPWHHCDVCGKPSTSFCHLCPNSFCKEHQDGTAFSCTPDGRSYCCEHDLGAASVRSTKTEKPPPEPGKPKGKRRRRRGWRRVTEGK
It counts as biochemical.

In test [2] the target is Dual specificity protein phosphatase 3 (Homo sapiens, UniProt P51452). Description: VHR1 phosphatase inhibitors, primary screen, biochemical, absorbance, uHTS (AID 1654).
Chain of Dual specificity protein phosphatase 3 (P51452 whole entry): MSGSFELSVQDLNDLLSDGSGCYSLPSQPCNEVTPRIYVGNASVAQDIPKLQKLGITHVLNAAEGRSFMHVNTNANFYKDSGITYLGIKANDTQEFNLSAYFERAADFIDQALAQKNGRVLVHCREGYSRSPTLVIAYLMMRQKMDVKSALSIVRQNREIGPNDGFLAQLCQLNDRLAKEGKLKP
The nature of test [3]: reduced cellular PGC1a acetyl-lysine signal – cell-based, cherry-picked samples, dose response (AID 720514).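 Also: potency may reflect raised or lowered acetylation signal.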 It counts as functional.
Test [4] can be described thus: reduction of Shn3 3'UTR-driven luciferase in osteoblasts – cell-based, Clone20 osteoblasts, firefly luciferase, cherry-picked, dose response (AID 624132).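 Also: firefly luciferase luminescence from reporter carrying the Shn3 3'UTR in osteoblasts.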 It counts as functional.
Test [5] can be described thus: microbe, parasite or virus in culture. It counts as functional. The settings on record: Mycobacterium tuberculosis.
Test [6] in a line: blockade of melanocortin 4 receptor signaling – cell-based, plate reader, cherry pick, counter-screen for LGR2 antagonist project, dose response (AID 743444).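 Also: transfected HEK 293 cells stimulated with alpha-MSH peptide; potency of inhibitors of the alpha-MSH evoked signal.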 The format is functional.
Test [7] addresses T2, Apoptotic protease-activating factor 1 (Homo sapiens, UniProt O14727).
T2 sequence (O14727 whole entry): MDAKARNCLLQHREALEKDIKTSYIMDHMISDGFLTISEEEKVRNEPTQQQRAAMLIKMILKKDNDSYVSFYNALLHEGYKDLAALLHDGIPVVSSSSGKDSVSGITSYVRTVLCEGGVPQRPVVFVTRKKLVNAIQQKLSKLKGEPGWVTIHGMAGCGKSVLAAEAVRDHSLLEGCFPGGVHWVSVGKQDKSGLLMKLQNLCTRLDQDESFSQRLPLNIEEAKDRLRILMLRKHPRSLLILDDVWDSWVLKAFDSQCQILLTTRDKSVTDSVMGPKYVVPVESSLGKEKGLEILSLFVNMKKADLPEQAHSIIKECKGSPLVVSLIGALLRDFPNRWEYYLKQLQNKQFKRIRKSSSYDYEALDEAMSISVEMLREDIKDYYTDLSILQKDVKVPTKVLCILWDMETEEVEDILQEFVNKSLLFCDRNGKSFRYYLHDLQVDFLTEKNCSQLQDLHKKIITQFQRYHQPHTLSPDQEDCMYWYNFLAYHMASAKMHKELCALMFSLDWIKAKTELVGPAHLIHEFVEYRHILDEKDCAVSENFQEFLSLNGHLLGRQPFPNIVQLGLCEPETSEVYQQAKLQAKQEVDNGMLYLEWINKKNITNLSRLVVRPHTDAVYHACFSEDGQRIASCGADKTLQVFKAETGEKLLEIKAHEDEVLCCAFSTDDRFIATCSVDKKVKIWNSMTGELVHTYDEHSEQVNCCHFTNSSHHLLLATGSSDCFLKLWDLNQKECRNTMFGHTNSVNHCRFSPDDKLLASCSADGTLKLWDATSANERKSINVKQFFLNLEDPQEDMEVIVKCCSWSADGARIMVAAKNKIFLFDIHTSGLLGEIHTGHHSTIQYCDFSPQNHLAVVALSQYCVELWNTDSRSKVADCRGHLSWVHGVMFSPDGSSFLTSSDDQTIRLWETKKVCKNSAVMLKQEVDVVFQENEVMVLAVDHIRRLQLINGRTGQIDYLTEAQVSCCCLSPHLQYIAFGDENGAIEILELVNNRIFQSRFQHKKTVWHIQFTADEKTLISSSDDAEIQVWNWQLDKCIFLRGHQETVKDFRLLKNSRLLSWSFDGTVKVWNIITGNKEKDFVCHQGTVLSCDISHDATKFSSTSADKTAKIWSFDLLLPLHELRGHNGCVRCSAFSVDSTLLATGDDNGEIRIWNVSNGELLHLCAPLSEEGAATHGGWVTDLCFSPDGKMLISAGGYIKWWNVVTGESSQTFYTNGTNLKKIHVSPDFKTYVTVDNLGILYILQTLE
It counts as functional.

A short description of test [8]: general mammalian cell viability loss – activator set, cherry-pick, cytotoxicity control for miR-122 modulator project, dose response (AID 720690).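 Also: HEK293T human cells scored for general mammalian cytotoxicity.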 It counts as functional, cell-based.

Each structure is given as a SMILES string. The source made the active and inactive calls.

As to `COc1ccc(NS(=O)(=O)c2ccc3c(c2)[C@H]2C=CC[C@H]2[C@@H](c2ccc(C(=O)O)cc2)N3)cc1`, in test [1], the AC50 (as a rule, the midpoint of the concentration-response curve, whichever way the signal moves) was > 20000 nM (inactive).

On to `Cn1nc(-c2ccccn2)nc2c(=O)n(C)c(=O)nc1-2`, for which the IC50 (commonly the midpoint of a concentration-inhibition curve) in test [2] is < 1230 nM (inactive); in test [7], 79 nM (active). In addition, the results for the AC50 in test [3], in test [4] and in test [6] were 3150 nM (active), 493 nM (active) and 2730 nM (active), respectively. The CC50 in test [5] is > 40000 nM (active).

Turning to `CCCCCCCCCCn1c2c(c(=N)c3c1CCC3)CCC2`, the AC50 in test [8] is 6560 nM (active).

(Values after ChEMBL document CHEMBL1201862, “PubChem BioAssay data set” (2004).)
